Patent US9855310B2, “Coix seed oil containing 8 triglycerides, and pharmaceutical preparation and use thereof” (ZHEJIANG KANGLAITE GROUP CO., LTD., priority 2014, dated 2018)
In brackets after ≈: the same amount, converted by molar mass. Where a name gives a salt, the structure may show the parent alone. Marks after values point to notes of the source that are not given here.

What was measured:
QGY human hepatoma = experiment: Growth of QGY human hepatoma transplanted in nude mice; conditions: ip × 7qd
Description: A549 Human lung cancer cells cryopreserved in liquid nitrogen were recovered, and incubated in a 37 incubator under 5% CO2. After being subcultured, cells in a logarithmic growth stage were distributed with normal saline to be a cell suspension in a concentration of 1-2×10^7 cells/ml. The cell suspension was inoculated into BALB/C nude mice (SPF grade, 18-20 g, 6 weeks old, male) subcutaneously at right axillary. The tumor tissues were aseptically taken from the 2nd generation of xenograft model of A549 human lung cancer in a vigorous growth stage and cut into small uniform pieces in the size of 1-2 mm^3. The right axillary of each nude mouse was inoculated one piece subcutaneously via a trocar. When the inoculated tumor could be touched, the mice were randomly grouped and administered according to the experimental design program. All contacted feed, padding, cages and equipment, etc., should be autoclaved prior to use. The nude mice were fed in a laminar flow rack. Tumor sizes and animal weights were observed and tested dynamically. Mice in each group were sacrificed 3 weeks later or so, and tumors were surgically removed and weighed.
(§3) Q value of antitumor effect in drug combination was calculated according to Jin's formula: Q=Ea+b/(Ea+Eb−Ea×Eb) Wherein Ea+b=the tumor inhibition rate of drug combination, Ea or Eb=the tumor inhibition rate of drug A or drug B, respectively.
QGY human hepatoma cells cryopreserved in liquid nitrogen were recovered, and incubated in a 37 incubator under 5% CO2.

A549 human lung cancer = experiment: Growth of A549 human lung cancer transplanted in nude mice; format: in vivo, BALB/C nude mice; conditions: ip × 7qd
Description: The injection of the invention (10 g/100 ml), Cisplatin (Qilu Pharmaceutical Co., Ltd), blank fat emulsion and normal saline

S180 sarcoma = S180 sarcoma transplanted in mice; format: in vivo, Kunmin mice; conditions: ip × 2(1, 3)
Description: The injection of the invention (10 g/100 ml), Cyclophosphamide (CTX), Mitoxantrone (DHAD), Mitomycin (MMC) and normal saline
Each mouse was inoculated with 0.2 ml of the suspension subcutaneously at the right axilla, and the mice were grouped randomly. The administration began from the next day according to the dosage program in Table 7. […] Weights of tumor were compared and inhibition rates were calculated for each group.

[1] = test system: Bcap-37 human breast cancer; experiment: Bcap-37 human breast cancer transplanted in nude mice; format: in vivo, BALB/C nude mice; conditions: 25 mg/kg, ip × 1
Description: The injection of the invention (10 g/100 ml), Docetaxel injection (Taxotere, 20 mg/vial) and normal saline
Bcap-37 human breast cancer: inoculated in BALB/C nude mice (SPF grade), 18-20 g, female
(§1) Tumor blocks of well-grown Bcap-37 human breast cancer were homogenized in normal saline to obtain cell suspensions in the concentration of 1-2×10^7 cells/ml. Each nude mouse was inoculated with 0.2 ml of the suspension at the right axilla subcutaneously, and the mice were grouped randomly. The administration began from the 7th day after the inoculation. 20 Days after the inoculation, the mice were sacrificed. Tumor blocks were taken out and weighed. Differences of tumor weight between each experimental group and the control group were compared, and tumor inhibition rates and Q values were calculated.

[2] = test system: PANC-1 human pancreatic cancer; experiment: PANC-1 human pancreatic cancer transplanted in nude mice; format: in vivo, BALB/C nude mice; conditions: 60 mg/kg, iv × 1
Description: as §3
Tumor blocks of well-grown PANC-1 human pancreatic cancer were inoculated subcutaneously in 4-week-old female BALB/C nude mice. The nude mice were grouped randomly and administered. One week after the end of the administration, the mice were sacrificed and dissected. Tumor blocks were taken out and weighed. Differences of tumor weight between each experimental group and the control group were compared and the tumor inhibition rates were calculated.

[3] = test system: FC-3M human prostate cancer; experiment: FC-3M human prostate cancer transplanted in nude mice; format: in vivo, BALB/C nude mice; conditions: iv × 1
Description: The injection of the invention (10 g/100 ml), Leuprolide acetate (Lupron) and normal saline
Tumor blocks of well-grown FC-3M human prostate cancer were homogenized in normal saline (1:4). Each nude mouse was inoculated with 0.2 ml of the suspension at the right axilla subcutaneously, and the mice were grouped randomly. The administration began from the next day. 21 Days after the inoculation, the mice were sacrificed. Tumor blocks were taken out and weighed. Differences of tumor weight between each experimental group and the control group were compared and the tumor inhibition rates were calculated.

[4] = test system: MDA-MB-435 human breast cancer; experiment: MDA-MB-435 human breast cancer transplanted in nude mice; format: in vivo, BALB/C nude mice; conditions: 50 mg/kg, ip × 1
Description: as §1, with “Each” for “Tumor blocks of well-grown Bcap-37 human breast cancer were homogenized in normal saline to obtain cell suspensions in the concentration of 1-2×10^7 cells/ml. Each”, “18” for “20”

[5] = test system: HepG-2 (human hepatic cancer cells); experiment: Inhibition on human tumor cell lines in MTT method in vitro; format: cell-based; conditions: HepG2
Excerpt: (§2) (1) Cell lines: PANC-1 (human pancreatic cancer cells), SKOV3 (human ovarian cancer cells), MCF-7 (human breast cancer cells), Bcap-37 (human breast cancer cells), SMMC-7721 (human hepatic cancer cells), HepG-2 (human hepatic cancer cells), A549 (human lung cancer cells) and H460 (human lung cancer cells), storaged and passaged maintainably in Research and Evaluation Center for Pharmacology, Shanghai Institute of Pharmaceutical Industry; The inhibition effects of samples on the above-mentioned cell lines were detected by using MTT method. The specific procedures were as follows: (1) Cell culture: (a) Storaged cells were taken out from the liquid nitrogen, thawed quickly in a 37 water bath, then aseptically transferred into 6 ml of cellular medium in a 10 ml centrifugal tube, and centrifuged at 1000 rpm for 5 min. The supernatant was discarded, then the precipitated cells were re-suspensed in 5-6 ml cellular media by pipetting and transferred into a flask in a 37 incubator for cell culture; (b) Next day, the flask was taken out from the incubator and the used medium was discarded, then the cells were incubated in 5-6 ml fresh medium in the 37 incubator; (c) On the third day, the flask was taken out from the incubator and the used medium was discarded, then 2-3 ml of PBS (pH7.4) was added into the flask with rocking for cleaning it and the used PBS was discarded. […] The flask was capped and placed in a 37 incubator for about 3 min, and the separation of cells from the flask wall was observed under the microscope. 2 ml of cellular medium was added and cells were separated completely from the flask wall by pipetting, then the cell suspension was transferred into 2 separate clean flasks, each containing 5-6 ml medium. The cell suspension was well-distributed by pipetting, then the flask was placed in a 37 incubator. (d) Step (c) was repeated every other day. In the whole cultivation process, adherent cells were not allowed to grow too dense and suspension cells were always maintained at a logarithmic growth stage. (2) Preparation of the sample and the control: A proper amount of sample of Coix seed oil (oil of Job's tears seed) was dissolved in DMSO to obtain a solution in a concentration of 10 mg/ml. […] The correspondingly diluted DMSO solutions, as controls, were added into the wells of the microplate. (4) Cells in a logarithmic growth stage were trypsinized and washed, then re-suspended in the medium containing 10% calf serum. The number of living cells was counted in Trypan blue dye exclusion method and cell suspensions were adjusted into a density of 2×10^5 cell/ml. (5) The cell-contained 96 well flat-bottom microplate was placed in a 37 incubator and cells were incubated under 5% CO2 for 48 h. (6) 20 μl of 5 mg/ml MTT solution was added into each well and cells were incubated continuously in the incubator for 3-4 h. (7) 100 μl of crystal dissolving solution was added into each well and cells were incubated continuously in the incubator overnight, so as to dissolve the resulted formazan crystals sufficiently. Then, the absorbance value was measured at 570 nm for each well. […] The calculation formula was as follows: (1−mean absorbance of experimental wells/mean absorbance of control wells)×100%

[6] = test system: A549 (human lung cancer cells); experiment: as above; format: cell-based
Excerpt: as §2

[7] = test system: MCF-7 (human breast cancer cells); experiment: as above; format: cell-based; conditions: MCF7
Excerpt: as §2

[8] = test system: H460 (human lung cancer cells); experiment: as above; format: cell-based; conditions: NCI-H460
Excerpt: as §2

[9] = test system: Bcap-37 (human breast cancer cells); experiment: as above; format: cell-based; conditions: Bcap37
Excerpt: as §2

[10] = test system: PANC-1 (human pancreatic cancer cells); experiment: as above; format: cell-based
Excerpt: as §2

[11] = test system: SKOV3 (human ovarian cancer cells); experiment: as above; format: cell-based; conditions: SK-OV-3
Excerpt: as §2

[12] = test system: SMMC-7721 (human hepatic cancer cells); experiment: as above; format: cell-based
Excerpt: as §2

W256 cancer sarcoma = W256 cancer sarcoma transplanted in rats; format: in vivo, Wistar rats
Description: The injection of the invention (10 g/100 ml), Cyclophosphamide (CTX) and normal saline
W256 cancer sarcoma: inoculated in Wistar rats, 50-60 g, female
Ascitic fluid of rats with well-grown W256 cancer sarcoma was diluted with normal saline to obtain a cell suspension of about 1-2×10^7 cells/ml. Each rat was inoculated with 0.2 ml of the suspension at the right axilla subcutaneously. The rats were grouped randomly next day and began administration. Two weeks later, animals were sacrificed and dissected to take out the tumor block. Weights of tumor were compared between each experimental group and the control group and tumor inhibition rates were calculated.

LM-3 human hepatoma = LM-3 human hepatoma transplanted in nude mice; conditions: ip × 7qd
Description: When the inoculated tumor could be touched, the mice were randomly grouped and administered according to the experimental design program. All contacted feed, padding, cages and equipment, etc., should be autoclaved prior to use. The nude mice were fed in a laminar flow rack. Tumor sizes and animal weights were observed and tested dynamically. Mice in each group were sacrificed 3 weeks later or so, and tumors were surgically removed and weighed.
LM-3 human hepatoma cells cryopreserved in liquid nitrogen were recovered, and incubated in a 37 incubator under 5% CO2. Other steps were the same as mentioned in 2-B.

SMILES: COc1cccc2c1C(=O)c1c(O)c3c(c(O)c1C2=O)C[C@@](O)(C(=O)CO)C[C@@H]3O[C@H]1C[C@H](N)[C@H](O)[C@H](C)O1 [Adriamycin]
- Inhibition rate % (QGY human hepatoma; 1 mg/kg): 35.48%
- Weight of animal start/end: end (QGY human hepatoma; 1 mg/kg): 24.5
- Weight of animal start/end: start (QGY human hepatoma; 1 mg/kg): 21.5
- Weight of tumor (g) x ± SD (QGY human hepatoma; 1 mg/kg): 0.742 ± 0.19 g
- Inhibition rate % (QGY human hepatoma; 2 mg/kg): 68.87%
- Weight of animal start/end: end (QGY human hepatoma; 2 mg/kg): 23.2
- Weight of tumor (g) x ± SD (QGY human hepatoma; 2 mg/kg): 0.358 ± 0.12 g

SMILES: N.N.[Cl][Pt][Cl] [Cisplatin]
- Inhibition rate % (A549 human lung cancer; 1 mg/kg): 41.07%
- Weight of animal (g) start/end: end (A549 human lung cancer; 1 mg/kg): 24.5 g
- Weight of animal (g) start/end: start (A549 human lung cancer; 1 mg/kg): 20.3 g
- Weight of tumor (g) x ± SD (A549 human lung cancer; 1 mg/kg): 0.772 ± 0.15 g
- Inhibition rate % (A549 human lung cancer; 2 mg/kg): 86.03%
- Weight of animal (g) start/end: end (A549 human lung cancer; 2 mg/kg): 23.6 g
- Weight of animal (g) start/end: start (A549 human lung cancer; 2 mg/kg): 20.3 g
- Weight of tumor (g) x ± SD (A549 human lung cancer; 2 mg/kg): 0.183 ± 0.05 g

SMILES: O=C1c2c(O)ccc(O)c2C(=O)c2c(NCCNCCO)ccc(NCCNCCO)c21 [DHAD, Mitoxantrone]
- Inhibition rate % (S180 sarcoma; 2 mg/kg): 51.0%
- Weight of tumor (g) x ± SD (S180 sarcoma; 2 mg/kg): 0.77 ± 0.19 g

SMILES: CC(=O)O[C@@]12CO[C@@H]1C[C@H](O)[C@@]1(C)C(=O)[C@H](O)C3=C(C)[C@@H](OC(=O)[C@H](O)[C@@H](NC(=O)OC(C)(C)C)c4ccccc4)C[C@@](O)([C@@H](OC(=O)c4ccccc4)[C@H]21)C3(C)C [Docetaxel]
- Inhibition rate % [1]: 56.80%
- Weight of tumor (g) x ± SD [1]: 1.27 ± 0.88 g

SMILES: Nc1ccn([C@@H]2O[C@H](CO)[C@@H](O)C2(F)F)c(=O)n1 [Gemcitabine, gemcitabine hydrochloride]
- Inhibition rate % [2]: 23.04%
- Weight of tumor (g) x ± SD [2]: 0.1426 ± 0.078 g

SMILES: CCNC(=O)[C@@H]1CCCN1C(=O)[C@H](CCCNC(=N)N)NC(=O)[C@H](CC(C)C)NC(=O)[C@@H](CC(C)C)NC(=O)[C@H](Cc1ccc(O)cc1)NC(=O)[C@H](CO)NC(=O)[C@H](Cc1c[nH]c2ccccc12)NC(=O)[C@H](Cc1c[nH]cn1)NC(=O)[C@@H]1CCC(=O)N1 [Lupron, Leuprolide acetate]
- Inhibition rate % ([3]; 0.75 ml/kg): 35.1%
- Weight of tumor (g) x ± SD ([3]; 0.75 ml/kg): 0.98 ± 0.26 g
- Inhibition rate % ([3]; 1.5 ml/kg): 47.68%
- Weight of tumor (g) x ± SD ([3]; 1.5 ml/kg): 0.79 ± 0.16 g

SMILES: CO[C@@]12[C@H](COC(N)=O)C3=C(C(=O)C(C)=C(N)C3=O)N1C[C@@H]1N[C@@H]12 [MMC, Mitomycin]
- Inhibition rate % (S180 sarcoma; 1.5 mg/kg): 39.5%
- Weight of tumor (g) x ± SD (S180 sarcoma; 1.5 mg/kg): 0.95 ± 0.16 g

SMILES: CC(=O)O[C@H]1C(=O)[C@@]2(C)[C@H]([C@H](OC(=O)c3ccccc3)[C@]3(O)C[C@H](OC(=O)[C@H](O)[C@@H](NC(=O)c4ccccc4)c4ccccc4)C(C)=C1C3(C)C)[C@]1(OC(C)=O)CO[C@@H]1C[C@@H]2O [Taxol, Paclitaxel]
- Inhibition rate % [4]: 62.87%
- IC50 [5]: 0.45 µg/mL (≈ 0.527 µM)
- IC50 [6]: 0.46 µg/mL (≈ 0.539 µM)
- IC50 [7]: 0.18 µg/mL (≈ 0.211 µM)
- IC50 [8]: 0.49 µg/mL (≈ 0.574 µM)
- IC50 [9]: 0.28 µg/mL (≈ 0.328 µM)
- IC50 [10]: 0.44 µg/mL (≈ 0.515 µM)
- IC50 [11]: 0.22 µg/mL (≈ 0.258 µM)
- IC50 [12]: 0.41 µg/mL (≈ 0.48 µM)

SMILES: O=P1(N(CCCl)CCCl)NCCCO1 (centres unmarked) [cyclophosphamide, Cyclophosphamide]
- Weight of tumor (g) x ± SD (S180 sarcoma; 30 mg/kg): 0.95 ± 0.22 g
- Inhibition rate % (S180 sarcoma; 30 mg/kg, listed as CTX): 39.5%
- Weight of tumor (g) x ± SD (W256 cancer sarcoma; 10 mg/kg, iv × 2(3, 5)): 2.07 ± 1.11 g
- Inhibition rate % (W256 cancer sarcoma; 10 mg/kg, iv × 2(3, 5), listed as CTX): 38.6%
- Inhibition rate % (W256 cancer sarcoma; 30 mg/kg, iv × 7): 88.1** %
- Weight of tumor (g) x ± SD (W256 cancer sarcoma; 30 mg/kg, iv × 7): 0.40 ± 0.15 g
- Inhibition rate % (LM-3 human hepatoma; 15 mg/kg): 27.21%
- Weight of animal start/end: end (LM-3 human hepatoma; 15 mg/kg): 25.1
- Weight of animal start/end: start (LM-3 human hepatoma; 15 mg/kg): 20.6
- Weight of tumor (g) x ± SD (LM-3 human hepatoma; 15 mg/kg): 1.110 ± 0.11 g
- Inhibition rate % (LM-3 human hepatoma; 30 mg/kg): 84.13%
- Weight of animal start/end: end (LM-3 human hepatoma; 30 mg/kg): 25.6
- Weight of animal start/end: start (LM-3 human hepatoma; 30 mg/kg): 20.4
- Weight of tumor (g) x ± SD (LM-3 human hepatoma; 30 mg/kg): 0.242 ± 0.11 g
